Experimental data taken from ChEMBL document CHEMBL2086344, “Halicloic acids A and B isolated from the marine sponge Haliclona sp. collected in the Philippines inhibit indoleamine 2,3-dioxygenase” (J Nat Prod, 2012).
The source made the active and inactive calls. No cut-off for these calls is given here.

Molecular target: T1, Indoleamine 2,3-dioxygenase 1 (Homo sapiens, UniProt P14902)
Test: Inhibition of recombinant human IDO expressed in Escherichia coli using L-tryptophan as substrate after 60 mins by spectrophotometry
Target sequence in this assay (P14902 whole entry): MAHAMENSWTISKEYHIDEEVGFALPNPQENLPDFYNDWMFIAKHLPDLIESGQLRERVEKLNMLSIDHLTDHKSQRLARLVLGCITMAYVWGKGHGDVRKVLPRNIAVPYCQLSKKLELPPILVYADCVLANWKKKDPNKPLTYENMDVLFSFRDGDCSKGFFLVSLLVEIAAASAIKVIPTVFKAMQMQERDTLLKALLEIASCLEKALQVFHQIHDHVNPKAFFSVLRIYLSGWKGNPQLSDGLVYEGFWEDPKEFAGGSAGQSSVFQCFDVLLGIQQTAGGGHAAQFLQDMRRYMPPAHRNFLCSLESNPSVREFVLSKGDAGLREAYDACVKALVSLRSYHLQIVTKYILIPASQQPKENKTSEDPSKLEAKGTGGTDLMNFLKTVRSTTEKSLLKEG

IC50	Compound
29 µM	CC1=CCC[C@@H](C)[C@]1(C)CC[C@@]1(C)[C@@H]2CC[C@]3(C)[C@H](CC[C@]4(C)c5c(C=O)ccc(O)c5C[C@@H]34)[C@@]2(C)CC[C@@H]1O
53 µM	CC1(C)CCC[C@]2(C)O[C@H]3CC[C@@]4(C)[C@@H](CC[C@]5(C)[C@@H]4CC[C@]4(C)c6c(C=O)ccc(O)c6C[C@@H]54)[C@]3(C)CC[C@@H]12
11 µM	CC1=CCC[C@@H](C)[C@]1(C)CC[C@@]1(C)[C@@H]2CC[C@]3(C)[C@H](CC[C@]4(C)c5c(C(O)C(=O)O)ccc(O)c5C[C@@H]34)[C@@]2(C)CC[C@@H]1O (relative stereo)
10 µM	CC1(C)CCC[C@]2(C)O[C@H]3CC[C@@]4(C)[C@@H](CC[C@]5(C)[C@@H]4CC[C@]4(C)c6c(C(O)C(=O)O)ccc(O)c6C[C@@H]54)[C@]3(C)CC[C@@H]12 (stereo partly drawn) [HALICLOIC ACID A]

Molecular target: T1, Indoleamine 2,3-dioxygenase 1
Test: Inhibition of recombinant human IDO expressed in Escherichia coli using L-tryptophan as substrate at 200 uM after 60 mins by spectrophotometry
Target sequence in this assay (P14902 whole entry, looked up): as the sequence (P14902 whole entry) above

Compound	inhibition
O=C(O)C(O)c1ccccc1 (stereo not drawn)	inactive
O=Cc1ccc(O)cc1	inactive
O=Cc1ccccc1	inactive
O=C(O)C(O)c1ccc(O)cc1 (stereo not drawn)	inactive
